These results are taken from patent publication US5196415A, “5-aminocarbonyl-5H-dibenzo[a.d]cyclohepten-5,10-imines for treatment of epilepsy and cocaine addiction” (The United States of America as represented by the …, priority 1992, dated 1993).

For series [1] the following is noted: in words; cited from earlier work.
Series [2] relates to phencyclidine binding sites in the central nervous system. Conditions: in words; cited from earlier work.
The conditions of series [3]: in words; cited from earlier work. The source holds these as a separate data set.
For series [4] the following is noted: compared to 17% who received a placebo; cited from earlier work.
Series [5] in a line: drug induced motor toxicity, inverted screen test. Conditions: mouse, in vivo, ip, mice. The method, then:
(§1) Compound 1 was administered intraperotoneally to male CF-1 type mice (20-25 g) with a saline solution carrier. The dose effect behavior was determined by the administration of six different doses of each compound, treating eight mice at each dose. After a period of fifteen minutes, the mice were subjected to corneal application of electroshock (30 mA at 50 Hz for 0.1 s). The ED50 and the 95% confidence intervals of drug which eliminated the tonic-extensor component of the convulsion in 50% of the animals was calculated by the method of Litchfield and Wilcoxon (J. Pharmacol. Exp. Ther. 1949, 96, 99). Drug induced motor toxicity was examined using the inverted screen test which measures the ability of mice to hold onto a screen which has been turned vertical. Control animals will be able to hold on.

Series [6] in a line: protection against maximal electroshock induced seizures (corneal electroshock, tonic-extensor component). Type of series: in vivo, male CF-1 type mice. Particulars: Mus musculus, ip, 0.25 h; mice, intraperitoneal, saline carrier, 15 min before electroshock (30 mA, 50 Hz, 0.1 s). The method, then:
as §1
A general note: Protection in the maximal electroshock model is a classic sign of anticonvulsant action.

For the compound `CC12NC(Cc3ccccc31)c1ccccc12` (single isomer, unassigned) [MK-801], the sedative side effects result in series [1] is reported as “essentially free of the usual sedative side effects”. Further, the “affinity for phencyclidine binding sites” value in series [2] is listed as “high affinity”.
Consider `NC(=O)N1c2ccccc2C=Cc2ccccc21` [Carbamazepine, 5-carbamyl-5H-dibenzo[b,f]azepine], for which, in series [3], the “acute and motor toxicity” value was “low acute and motor toxicity”; the anticonvulsant activity result was “good activity”; the bioavailability entry is “low bioavailability”; the bone marrow suppression entry is “implicated in bone marrow suppression”. Besides, the toxic overdose reported result in series [3] was “only one case of toxic overdose has been reported”. The “addicts taking the medication able to abstain from cocaine for a prescribed period” value in series [4] was 59%.
With `NC(=O)C12NC(Cc3ccccc31)c1ccccc12` (centres unmarked) [Compound 1, 5-Aminocarbonyl-10,11-dihydro-5H-dibenzo[a,d]cyclohepten-5,10-imine], the TD50 (as a rule, the dose at which the toxic effect under study appears in half of the subjects) in series [5] (intraperitoneal, inverted screen test) lay within 50 to 55 mg/kg. Also, the selectivity ratio in series [5] (motor toxicity TD50 versus maximal electroshock ED50, read-out: therapeutic index (TI)) is 5.6 to 6.2. It took a dose of 8.9 mg/kg to reach the 50% effect level in series [6] (ED50).
